Measurements reported in patent publication US12492188B2, “1H-benzo[D]imidazole derivatives as TLR9 inhibitors for the treatment of fibrosis” (BRISTOL-MYERS SQUIBB COMPANY, priority 2020, dated 2025).
Read-outs that look alike come from different tables or passages of the source.

Molecular target: T1, human TLR9 (Homo sapiens, UniProt Q9NR96)
T1 construct: host or cells: HEK-Blue cells (HEK293-derived reporter line)
T1 sequence (Q9NR96 26-1032): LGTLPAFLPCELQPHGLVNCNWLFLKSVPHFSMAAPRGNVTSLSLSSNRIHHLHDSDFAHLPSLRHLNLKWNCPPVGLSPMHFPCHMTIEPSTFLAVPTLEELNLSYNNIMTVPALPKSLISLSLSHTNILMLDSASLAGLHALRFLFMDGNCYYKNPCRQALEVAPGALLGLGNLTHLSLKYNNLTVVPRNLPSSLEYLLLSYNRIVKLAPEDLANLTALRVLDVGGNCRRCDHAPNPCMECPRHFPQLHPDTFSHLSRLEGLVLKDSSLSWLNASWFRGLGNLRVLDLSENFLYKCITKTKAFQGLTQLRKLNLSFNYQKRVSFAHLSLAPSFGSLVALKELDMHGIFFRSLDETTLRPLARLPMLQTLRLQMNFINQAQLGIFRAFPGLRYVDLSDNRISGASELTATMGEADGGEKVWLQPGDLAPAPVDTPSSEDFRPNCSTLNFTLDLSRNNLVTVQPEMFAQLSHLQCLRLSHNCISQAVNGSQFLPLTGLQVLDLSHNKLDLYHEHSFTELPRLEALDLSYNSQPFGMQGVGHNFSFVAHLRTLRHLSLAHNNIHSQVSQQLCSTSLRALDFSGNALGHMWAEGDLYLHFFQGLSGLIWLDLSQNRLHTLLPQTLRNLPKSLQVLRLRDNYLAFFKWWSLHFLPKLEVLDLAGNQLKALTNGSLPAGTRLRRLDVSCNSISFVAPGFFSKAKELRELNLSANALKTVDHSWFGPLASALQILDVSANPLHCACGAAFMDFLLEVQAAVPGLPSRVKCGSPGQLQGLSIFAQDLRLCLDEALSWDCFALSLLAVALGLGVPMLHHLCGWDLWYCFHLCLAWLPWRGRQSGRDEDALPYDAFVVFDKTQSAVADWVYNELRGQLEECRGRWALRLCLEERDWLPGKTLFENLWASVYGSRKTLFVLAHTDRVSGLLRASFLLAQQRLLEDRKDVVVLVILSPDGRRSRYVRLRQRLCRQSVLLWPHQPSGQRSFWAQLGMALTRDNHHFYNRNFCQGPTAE
Test: TLR9 inhibition reporter assay (HEK-Blue cells, secreted embryonic alkaline phosphatase reporter)
Type: cell-based
Procedure: TLR7/8/9 Inhibition Reporter Assays
HEK-Blue™-cells (Invivogen) overexpressing human TLR7, TLR8 or TLR9 receptors were used for screening inhibitors of these receptors using an inducible SLAP (secreted embryonic alkaline phosphatase) reporter gene under the control of the […] minimal promoter fused to five NF-κB and AP-1-binding sites. Briefly, cells are seeded into Greiner 384 well plates (15000 cells per well for TLR7, 20,000 for TLR8 and 25,000 for TLR9) and then treated with test compounds in DMSO to yield a final dose response concentration range of 0.05 nM-50 μM. After a 30 minute compound pre-treatment at room temperature, the cells are then stimulated with a TLR7 ligand (gardiquimod at a final concentration of 7.5 μM), TLR8 ligand (R848 at a final concentration of 15.9 μM) or TLR9 ligand (ODN2006 at a final concentration of 5 nM) to activate NF-κB and AP-1 which induce the production of SLAP. After a 22 hour incubation at 37° C., […], SLAP levels are determined with the addition of HEK-Blue™ Detection reagent (Invivogen), a cell culture medium that allows for detection of SLAP, according to manufacturer's specifications. The percent inhibition is determined as the […] in the HEK-Blue signal present in wells treated with agonist plus DMSO alone compared to wells treated with a known inhibitor.

[1] = HEK-Blue cells overexpressing human TLR9, stimulated with ODN2006 5 nM, read-out: TLR 9 IC50
[2] = HEK-Blue human TLR9 reporter cells

Row | SMILES | IC50 [nM] | IC50 [1] [nM] | IC50 [2] [nM]
1 | Cc1cc(C2CCN(C3CC4(C3)CN(C3CCC3)C4)CC2)cc2c1nc(-c1ccc(S(C)(=O)=O)cc1)n2C [Example 140, 6-(1-(2-cyclobutyl-2-azaspiro[3.3]heptan-6-yl)piperidin-4-yl)-1,4-dimethyl-2-(4-(methylsulfonyl)phenyl)-1H-benzo[d]imidazole] | 290 | 290 | 
2 | Cc1cc(C2CCN(C3CC4(C3)CN(CC(C)C)C4)CC2)cc2c1nc(-c1ccc(S(C)(=O)=O)cc1)n2C [Example 141, 6-(1-(2-isobutyl-2-azaspiro[3.3]heptan-6-yl)piperidin-4-yl)-1,4-dimethyl-2-(4-(methylsulfonyl)phenyl)-1H-benzo[d]imidazole] | 250 | 248 | 
3 | Cc1cc(C2CCN(C3CC4(C3)CN(CC3CCC3)C4)CC2)cc2c1nc(-c1ccc(S(C)(=O)=O)cc1)n2C [Example 143, 6-(1-(2-(cyclobutylmethyl)-2-azaspiro[3.3]heptan-6-yl)piperidin-4-yl)-1,4-dimethyl-2-(4-(methylsulfonyl)phenyl)-1H-benzo[d]imidazole] | 85 | 85 | 
4 | COc1ccc(-c2nc3c(C)cc(C4CCN(C5CC6CCC(C5)N6C5CCC5)CC4)cc3n2C)cc1OC (stereo not drawn) [Example 147, 6-(1-(8-cyclobutyl-8-azabicyclo[3.2.1]octan-3-yl)piperidin-4-yl)-2-(3,4-dimethoxyphenyl)-1,4-dimethyl-1H-benzo[d]imidazole] | 200 | 199 | 
5 | Cc1cc(-c2ccc(N3CCN(CC(C)C)CC3)cc2)cc2c1nc(-c1ccc(S(C)(=O)=O)cc1)n2C [Example 170, 6-(4-(4-isobutylpiperazin-1-yl)phenyl)-1,4-dimethyl-2-(4-(methylsulfonyl)phenyl)-1H-benzo[d]imidazole] | 4400 | 4440 | 
6 | Cc1cc(-c2ccc(N3CCN(CC4CC4)CC3)cc2)cc2c1nc(-c1ccc(S(C)(=O)=O)cc1)n2C [Example 171, 6-(4-(4-(cyclopropylmethyl)piperazin-1-yl)phenyl)-1,4-dimethyl-2-(4-(methylsulfonyl)phenyl)-1H-benzo[d]imidazole] | 650 | 653 | 
7 | Cc1cc(-c2ccc(N3CCN(CC4CCC4)CC3)cc2)cc2c1nc(-c1ccc(S(C)(=O)=O)cc1)n2C [Example 172, 6-(4-(4-(cyclobutylmethyl)piperazin-1-yl)phenyl)-1,4-dimethyl-2-(4-(methylsulfonyl)phenyl)-1H-benzo[d]imidazole] | 1800 | 1780 | 
8 | COCCN1CCN(c2ccc(-c3cc(C)c4nc(-c5ccc(S(C)(=O)=O)cc5)n(C)c4c3)cc2)CC1 [Example 173, 6-(4-(4-(2-methoxyethyl)piperazin-1-yl)phenyl)-1,4-dimethyl-2-(4-(methylsulfonyl)phenyl)-1H-benzo[d]imidazole] | 1100 | 1110 | 
9 | COc1ccc(-c2nc3ccc(C4CCN(C5CCN(C6CC6)CC5)CC4)c(F)c3[nH]2)cc1OC [Example 175, 6-(1′-cyclopropyl-[1,4′-bipiperidin]-4-yl)-2-(3,4-dimethoxyphenyl)-7-fluoro-1H-benzo[d]imidazole] | 530 | 527 | 
10 | Cc1cc(-c2ccc(N3CCN(C4CCOCC4)CC3)cc2)cc2c1nc(-c1ccc(S(C)(=O)=O)cc1)n2C [Example 176, 1,4-dimethyl-2-(4-(methylsulfonyl)phenyl)-6-(4-(4-(tetrahydro-2H-pyran-4-yl)piperazin-1-yl)phenyl)-1H-benzo[d]imidazole] | 680 | 680 | 
11 | Cc1c(C2CCN(C3CCN(CC(C)C)CC3)CC2)ccc2nc(-c3ccc(S(C)(=O)=O)cc3)n(C)c12 [Example 330, 6-(1′-isobutyl-[1,4′-bipiperidin]-4-yl)-1,7-dimethyl-2-(4-(methylsulfonyl)phenyl)-1H-benzo[d]imidazole] |  | 1390 | 1400
12 | Cc1cc2nc(-c3ccc(S(C)(=O)=O)cc3)n(C)c2cc1C1CCN(C2CCN(CC(C)C)CC2)CC1 [Example 331, 6-(1′-isobutyl-[1,4′-bipiperidin]-4-yl)-1,5-dimethyl-2-(4-(methylsulfonyl)phenyl)-1H-benzo[d]imidazole] |  | 143 | 140
13 | Cc1cc(C2CCN(C3CC4CCC(C3)N4C3CC3)CC2)cc2c1nc(-c1ccc(S(C)(=O)=O)c(F)c1)n2C (stereo not drawn) [Example 345, 6-(1-(8-cyclopropyl-8-azabicyclo[3.2.1]octan-3-yl)piperidin-4-yl)-2-(3-fluoro-4-(methylsulfonyl)phenyl)-1,4-dimethyl-1H-benzo[d]imidazole] |  | 132 | 130

More lines, in order of falling IC50 [1], values ahead:

Row | IC50 [nM] | IC50 [1] [nM] | IC50 [2] [nM] | SMILES
14 |  | 84 | 84 | Cc1cc(C2CCN(C3CC4CCC(C3)N4CC3CC3)CC2)cc2c1nc(-c1ccc(S(C)(=O)=O)c(F)c1)n2C (stereo not drawn) [Example 340, 6-(1-(8-(cyclopropylmethyl)-8-azabicyclo[3.2.1]octan-3-yl)piperidin-4-yl)-2-(3-fluoro-4-(methylsulfonyl)phenyl)-1,4-dimethyl-1H-benzo[d]imidazole]
15 |  | 77 | 77 | CS(=O)(=O)c1ccc(-c2nc3c(F)cc(C4CCN(C5CCN(CC6CC6)CC5)CC4)cc3n2C2CC2)cc1 [Example 320, 1-cyclopropyl-6-(1′-(cyclopropylmethyl)-[1,4′-bipiperidin]-4-yl)-4-fluoro-2-(4-(methylsulfonyl)phenyl)-1H-benzo[d]imidazole]
16 | 70 | 70 |  | COc1ccc(-c2nc3c(C)cc(C4CCN(C5CC6CCC(C5)N6C5CCC5)CC4)cc3n2C)cc1OC (stereo not drawn) [Example 146, 6-(1-(8-cyclobutyl-8-azabicyclo[3.2.1]octan-3-yl)piperidin-4-yl)-2-(3,4-dimethoxyphenyl)-1,4-dimethyl-1H-benzo[d]imidazole]
17 | 68 | 68 |  | Cc1cc(C2CCN(C3CC4(C3)CN(CC3CC3)C4)CC2)cc2c1nc(-c1ccc(S(C)(=O)=O)cc1)n2C [Example 142, 6-(1-(2-(cyclopropylmethyl)-2-azaspiro[3.3]heptan-6-yl)piperidin-4-yl)-1,4-dimethyl-2-(4-(methylsulfonyl)phenyl)-1H-benzo[d]imidazole]
18 | 62 | 62 |  | COc1ccc(-c2nc3c(C)cc(C4CCN(C5CC6CCC(C5)N6C(C)C)CC4)cc3n2C)cc1OC (stereo not drawn) [Example 144, 2-(3,4-dimethoxyphenyl)-6-(1-(8-isopropyl-8-azabicyclo[3.2.1]octan-3-yl)piperidin-4-yl)-1,4-dimethyl-1H-benzo[d]imidazole]
19 | 47 | 47 |  | COc1ccc(-c2nc3c(C)cc(C4CCN(C5CC6CCC(C5)N6CC5CC5)CC4)cc3n2C)cc1OC (stereo not drawn) [Example 149, 6-(1-(8-(cyclopropylmethyl)-8-azabicyclo[3.2.1]octan-3-yl)piperidin-4-yl)-2-(3,4-dimethoxyphenyl)-1,4-dimethyl-1H-benzo[d]imidazole]
20 | 34 | 34 |  | COc1ccc(-c2nc3c(C)cc(C4CCN(C5CC6CCC(C5)N6CC5CC5)CC4)cc3n2C)cc1OC (stereo not drawn) [Example 148, 6-(1-(8-(cyclopropylmethyl)-8-azabicyclo[3.2.1]octan-3-yl)piperidin-4-yl)-2-(3,4-dimethoxyphenyl)-1,4-dimethyl-1H-benzo[d]imidazole]
21 | 24 | 24 |  | COc1ccc(-c2nc3c(C)cc(C4CCN(C5CC6CCC(C5)N6C(C)C)CC4)cc3n2C)cc1OC (stereo not drawn) [Example 145, 2-(3,4-dimethoxyphenyl)-6-(1-(8-isopropyl-8-azabicyclo[3.2.1]octan-3-yl)piperidin-4-yl)-1,4-dimethyl-1H-benzo[d]imidazole]
